Laboratory results published in US11214565B2, “Compound, compositions, and methods” (Denali Therapeutics Inc., priority 2015, dated 2022).

Target: LRRK2 G2019S enzyme (Homo sapiens (Human), UniProt Q5S007, G2019S)
Test: LRRK2 G2019S TR-FRET biochemical kinase assay (LRRKtide substrate)
Conditions: Table D-4; 5 nM LRRK2, 134 μM ATP, 60 minute reaction, 23° C.
How it was run: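 5 nM LRRK2 G2019S preincubated 20 min with LRRKtide and compound (3.162-fold dilution series) in Tris pH 7.5, MgCl2, EGTA, Brij-35, DTT, then reacted 60 min at 23 °C with 134 μM ATP. EDTA-stopped; pLRRKtide antibody detection, TR-FRET read at 340 nm excitation, 520/490–495 nm emission.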

Chain of LRRK2 G2019S enzyme (Q5S007 whole entry G2019S): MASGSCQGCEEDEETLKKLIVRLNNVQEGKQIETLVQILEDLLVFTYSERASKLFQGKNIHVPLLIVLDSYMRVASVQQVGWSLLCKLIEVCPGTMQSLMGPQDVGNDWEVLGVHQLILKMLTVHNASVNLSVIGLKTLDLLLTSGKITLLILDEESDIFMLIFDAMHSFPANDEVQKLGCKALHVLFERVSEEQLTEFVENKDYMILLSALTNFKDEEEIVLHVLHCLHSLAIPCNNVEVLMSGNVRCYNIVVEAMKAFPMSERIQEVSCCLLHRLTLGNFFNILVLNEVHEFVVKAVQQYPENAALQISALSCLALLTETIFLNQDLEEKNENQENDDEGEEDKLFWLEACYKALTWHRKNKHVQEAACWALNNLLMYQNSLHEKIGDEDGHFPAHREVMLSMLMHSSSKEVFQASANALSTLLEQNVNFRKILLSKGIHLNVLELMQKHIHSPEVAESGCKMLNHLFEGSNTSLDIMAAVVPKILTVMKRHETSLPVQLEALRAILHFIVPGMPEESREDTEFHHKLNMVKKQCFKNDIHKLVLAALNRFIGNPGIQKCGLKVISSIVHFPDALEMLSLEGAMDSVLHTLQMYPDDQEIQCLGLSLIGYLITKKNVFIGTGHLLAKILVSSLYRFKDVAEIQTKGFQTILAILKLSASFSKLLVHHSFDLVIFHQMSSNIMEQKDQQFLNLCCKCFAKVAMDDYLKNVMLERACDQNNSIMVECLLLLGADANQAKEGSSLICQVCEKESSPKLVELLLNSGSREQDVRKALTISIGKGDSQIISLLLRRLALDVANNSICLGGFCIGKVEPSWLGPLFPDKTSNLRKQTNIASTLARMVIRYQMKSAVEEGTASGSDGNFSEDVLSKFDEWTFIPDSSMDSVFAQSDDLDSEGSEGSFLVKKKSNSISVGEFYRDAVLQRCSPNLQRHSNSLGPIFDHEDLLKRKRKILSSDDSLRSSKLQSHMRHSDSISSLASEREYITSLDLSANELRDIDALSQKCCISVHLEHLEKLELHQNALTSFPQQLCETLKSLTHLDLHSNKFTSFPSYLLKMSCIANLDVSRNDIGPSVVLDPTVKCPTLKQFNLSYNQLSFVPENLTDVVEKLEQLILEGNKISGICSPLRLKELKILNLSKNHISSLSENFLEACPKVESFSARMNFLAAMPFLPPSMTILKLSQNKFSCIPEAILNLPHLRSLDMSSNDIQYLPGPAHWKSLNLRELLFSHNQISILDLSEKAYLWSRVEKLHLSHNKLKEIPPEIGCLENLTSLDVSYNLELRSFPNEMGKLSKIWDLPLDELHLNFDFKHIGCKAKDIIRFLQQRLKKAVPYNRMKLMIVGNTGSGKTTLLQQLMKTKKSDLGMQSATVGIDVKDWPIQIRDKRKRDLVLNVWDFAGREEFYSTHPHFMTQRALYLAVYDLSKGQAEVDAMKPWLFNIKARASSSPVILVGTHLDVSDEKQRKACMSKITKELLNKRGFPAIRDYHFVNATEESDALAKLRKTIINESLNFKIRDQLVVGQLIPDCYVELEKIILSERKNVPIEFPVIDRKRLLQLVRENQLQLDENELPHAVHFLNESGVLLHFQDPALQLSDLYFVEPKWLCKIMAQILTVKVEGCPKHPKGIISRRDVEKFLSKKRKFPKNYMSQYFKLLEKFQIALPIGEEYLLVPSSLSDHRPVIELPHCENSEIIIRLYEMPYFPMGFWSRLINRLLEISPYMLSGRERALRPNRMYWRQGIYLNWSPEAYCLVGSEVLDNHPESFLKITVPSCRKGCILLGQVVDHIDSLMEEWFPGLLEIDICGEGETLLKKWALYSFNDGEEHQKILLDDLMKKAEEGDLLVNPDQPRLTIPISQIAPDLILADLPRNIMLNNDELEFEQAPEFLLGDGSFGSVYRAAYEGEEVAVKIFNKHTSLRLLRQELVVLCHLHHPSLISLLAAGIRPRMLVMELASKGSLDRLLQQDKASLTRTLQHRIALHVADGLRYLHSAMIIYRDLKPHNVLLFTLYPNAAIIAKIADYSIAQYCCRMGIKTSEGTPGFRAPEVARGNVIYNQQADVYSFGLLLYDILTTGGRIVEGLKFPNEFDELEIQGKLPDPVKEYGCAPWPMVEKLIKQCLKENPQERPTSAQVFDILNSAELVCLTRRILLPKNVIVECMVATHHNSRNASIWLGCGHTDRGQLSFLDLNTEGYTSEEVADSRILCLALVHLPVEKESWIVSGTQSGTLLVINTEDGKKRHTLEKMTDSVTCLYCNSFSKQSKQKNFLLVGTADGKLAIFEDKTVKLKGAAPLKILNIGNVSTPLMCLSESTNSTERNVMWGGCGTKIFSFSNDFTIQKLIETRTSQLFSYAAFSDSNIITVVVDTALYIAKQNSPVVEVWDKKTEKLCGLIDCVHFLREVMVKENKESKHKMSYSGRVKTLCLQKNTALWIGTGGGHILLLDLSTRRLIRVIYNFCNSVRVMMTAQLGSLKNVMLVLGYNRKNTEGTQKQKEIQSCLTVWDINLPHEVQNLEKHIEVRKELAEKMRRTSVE

Row | SMILES | IC50 [nM]
1 | CNc1nc(Nc2cnn([C@@H]3CCC(n4nccn4)C3)c2C)ncc1C(F)(F)F (stereo partly drawn) [Compounds D-141] | < 30
2 | COc1nc(Nc2cnn([C@H]3CCn4ccnc43)c2C)ncc1C(F)(F)F [Compounds D-142] | > 60
3 | CNc1nc(Nc2cn([C@H]3CCC(n4ccnn4)C3)nc2C)ncc1C(F)(F)F (stereo partly drawn) [Compounds D-143] | 30 to 60
4 | CNc1nc(Nc2cnn([C@H]3CCC(n4nccn4)C3)c2C)ncc1C(F)(F)F (stereo partly drawn) [Compounds D-149] | 30 to 60
5 | CCNc1nc(Nc2cnn([C@H]3CCCn4ccnc43)c2C)ncc1C(F)(F)F [Compounds D-151] | < 30
6 | CCNc1nc(Nc2cnn([C@@H]3CCn4ccnc43)c2C)ncc1C(F)(F)F [Compounds D-152] | < 30
7 | CNc1nc(Nc2cnn([C@H]3CCC(n4nccn4)C3)c2C)ncc1C(F)(F)F (stereo partly drawn) [Compounds D-156] | < 30
8 | CCNc1nc(Nc2cn([C@H]3Cc4nccn4C3)nc2C)ncc1C(F)(F)F [Compounds D-163] | < 30
9 | CNc1nc(Nc2cnn([C@H]3CCn4cncc43)c2C)ncc1C(F)(F)F [Compounds D-166] | < 30
10 | CCNc1nc(Nc2cnn([C@H]3CCCn4ccnc43)c2C)ncc1C(F)(F)F [Compounds D-170] | < 30
11 | CCNc1nc(Nc2cnn([C@H]3CCc4c(C)noc43)c2C)ncc1C(F)(F)F [Compounds D-171] | < 30
12 | CCNc1nc(Nc2cnn([C@H]3CCn4ccnc43)c2C)ncc1C(F)(F)F [Compounds D-172] | < 30
13 | CNc1nc(Nc2cnn([C@@H]3CCc4c(C)noc43)c2C)ncc1C(F)(F)F [Compounds D-173] | > 60
14 | CNc1nc(Nc2cnn([C@H]3CCC(n4ccnn4)C3)c2C)ncc1C(F)(F)F (stereo partly drawn) [Compounds D-175] | < 30
15 | CNc1nc(Nc2cn(C3(C)CCn4ccnc43)nc2C)ncc1C(F)(F)F [Compounds D-188] | > 60
16 | CNc1nc(Nc2cn(C3(C)CCn4ccnc43)nc2C)ncc1C(F)(F)F [Compounds D-189] | < 30
17 | CNc1nc(Nc2cnn([C@](C)(C#N)CF)c2C)ncc1C(F)(F)F [Compounds D-190] | < 30
18 | CNc1nc(Nc2cnn([C@@](C)(C#N)CF)c2C)ncc1C(F)(F)F [Compounds D-191] | < 30
19 | CNc1nc(Nc2cnn([C@](C)(C#N)C(F)F)c2C)ncc1C(F)(F)F [Compounds D-199] | < 30
20 | CNc1nc(Nc2cnn([C@@](C)(C#N)C(F)F)c2C)ncc1C(F)(F)F [Compounds D-200] | < 30
21 | Cc1c(Nc2ncc(C(F)(F)F)c(NC3CC3)n2)cnn1[C@](C)(C#N)CF [Compounds D-201] | < 30
22 | Cc1c(Nc2ncc(C(F)(F)F)c(NC3CC3)n2)cnn1C(C)(C#N)CF [Compounds D-202] | < 30
23 | CCNc1nc(Nc2cnn([C@@]3(C)CCn4ccnc43)c2C)ncc1C(F)(F)F [Compounds D-205] | > 60
24 | CCNc1nc(Nc2cnn([C@]3(C)CCn4ccnc43)c2C)ncc1C(F)(F)F [Compounds D-206] | < 30
